System: mouse liver microsomes, LC/MS/MS parent remaining, 60 min
Test: metabolic stability in mouse liver microsomes, late-stage follow-up, ADME assay, biochemical, LC/MS/MS, with and without NADPH (AID 1940)
Conditions: at 1 µM, stronger effect = lower value

CC1Cc2cc(S(=O)(=O)N3CCN(c4ccc(Cl)cc4)CC3)ccc2N1C(=O)C1CC1 (configuration not stated)
percent remaining: 0.56% | percent remaining (measured here: no NADPH control): 61.2%

From PubChem BioAssay AID1940 (Sanford-Burnham Center for Chemical Genomics, 2009)
